From BindingDB's records for doi:10.1093/toxsci/47.2.181 (University of Texas M. D. Anderson Cancer Center, 1999)

Molecular target: T1, Solute carrier family 22 member 2 (Rattus norvegicus, UniProt Q9R0W2)
T1 sequence (Q9R0W2 whole entry): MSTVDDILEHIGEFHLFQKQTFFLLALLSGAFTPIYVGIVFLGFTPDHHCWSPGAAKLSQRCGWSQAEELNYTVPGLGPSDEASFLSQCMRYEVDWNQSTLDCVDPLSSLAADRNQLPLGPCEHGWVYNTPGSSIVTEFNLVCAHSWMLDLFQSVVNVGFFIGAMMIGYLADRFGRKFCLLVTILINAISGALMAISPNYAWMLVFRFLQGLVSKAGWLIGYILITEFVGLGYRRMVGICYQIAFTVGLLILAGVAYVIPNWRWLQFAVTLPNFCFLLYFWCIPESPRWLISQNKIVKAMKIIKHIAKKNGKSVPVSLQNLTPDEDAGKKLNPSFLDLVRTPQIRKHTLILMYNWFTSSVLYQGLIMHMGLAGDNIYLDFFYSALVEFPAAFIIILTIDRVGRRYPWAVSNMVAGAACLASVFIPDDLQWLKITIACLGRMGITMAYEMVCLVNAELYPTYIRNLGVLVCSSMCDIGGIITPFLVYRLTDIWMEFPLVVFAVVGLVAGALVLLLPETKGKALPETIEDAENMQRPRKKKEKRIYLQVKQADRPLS
Experiment: TP_TRANSPORTER: inhibition of TEA uptake (apical to cell) in OCT2-expressing NIH3T3 cells

`[NH2][Pt]([NH2])([Cl])[Cl]` [cis-Platinum diamminedichloride] gave a Ki of 925 µM.
